Data: patent US6552080B1, “Fungicidal compounds having a fluorovinyl-or fluoropropenyl-oxyphenyloxime moiety and process for the preparation thereof” (Korea Research Institute of Chemical Technology, priority 1999, dated 2003)
Like-named read-outs stand apart in the source and are kept apart here.

Assays:
Rhizoctonia solani AG-1 = test: Fungicidal activity against Rice Sheath Blight (RSB) disease; settings: for RSB (Fungicidal Activities, C.V.): Rice Sheath Blight
Method: To examine fungicidal activity of the compounds of the present invention, each of the compounds listed in Table 3 and 4 was dissolved in 10% acetone to a concentration of 250 ppm, and Tween-20 was added thereto to a concentration of 250 or 500 ppm. 50 ml of the resulting solution was sprayed on leaves of a host plant. The plant was kept at room temperature for 24 hours to let the solvent evaporate, and then, a pathogenic fungus was inoculated thereonto. The plant was held in a humidity chamber for 24 hours, transferred to an plant growth room kept at 20 to 27° C. and a relative humidity of 60 to 80% and kept to induce disease. […] This procedure was repeated twice for each test. 10% Acetone solution containing 250 ppm of Tween-20 was used as a control.
The fungicidal activity of the compound of the present invention is repressed by a control value (C.V.) calculated as; [formula]
Rhizoctonia solani AG-1 was cultured on a PDA medium (potato 200 g, dextrose 20 g, agar 20 g and distilled water 1 ? for 3 days and the agar disc(diameter 0.6 cm) was inoculated and cultured on sterilized wheat bran medium in a 1 L bottle at 26 to 28° C. for 7 days. A mycelial mass was ground using a homogenizer, inoculated uniformly on soil of a pot wherein a Nakdong rice plant having 2 or 3 leaves and an height of 5 cm grew, and kept in humidity polyvinyl chamber for 5 days to induce RSB. L.A. on a leaf sheath was measured to calculate an C.V.

Erysiphae graminis = test: Fungicidal activity against Barley Powdery Mildew (BPM) disease; assay type: in vivo; settings: for BPM (Fungicidal Activities, C.V.): Barley Powdery Mildew
Botrytis cinerae = test: Fungicidal activity against Cucumber Gray Mold Rot (CGM) disease; assay type: in vivo; settings: for CGM (Fungicidal Activities, C.V.): Cucumber Gray Mold Rot, concentration 50 ppm
Method: Botrytis cinerae, which was isolated from cucumber infected thereby, was inoculated on a PDA agar medium and cultured under a 12L/12D cycle at 25° C. for 15 days to form spore. The spores were scraped, filtered through a gauze and then suspended in potato dextrose liquid medium at a concentration of 1×10^6 spore/ml. The spore suspension was sprayed on a cucumber plant having one leaf. The cucumber plant was held in a humidified room at 20° C. for 3 days. L.A. on a leaf was measured to calculate an C.V.

Puccinia recondita = test: Fungicidal activity against Wheat Leaf Rust (WLR) disease; assay type: in vivo; settings: for WLR (Fungicidal Activities, C.V.): Wheat Leaf Rust
Phytophthora infestans = assay type: in vivo; settings: for TLB (Fungicidal Activities, C.V.): Tomato Late Blight
[1] = tested on: Pyricularia oryzae Carvara KA301; assay type: in vivo; settings: for RCV (Fungicidal Activities, C.V.): Rice Blast

SMILES	RSB (Fungicidal Activities, C.V.) (Rhizoctonia solani AG-1; concentration 50 ppm) [%]	BPM (Fungicidal Activities, C.V.) (Erysiphae graminis; concentration 2 ppm) [%]	BPM (Fungicidal Activities, C.V.) (Erysiphae graminis; concentration 50 ppm) [%]	CGM (Fungicidal Activities, C.V.) (Botrytis cinerae) [%]	WLR (Fungicidal Activities, C.V.) (Puccinia recondita; concentration 2 ppm) [%]	WLR (Fungicidal Activities, C.V.) (Puccinia recondita; concentration 50 ppm) [%]	TLB (Fungicidal Activities, C.V.) (Phytophthora infestans; concentration 50 ppm) [%]	RCV (Fungicidal Activities, C.V.) ([1]; concentration 50 ppm) [%]	Fungicidal Activities RSB (C.V.) (Rhizoctonia solani AG-1; 2 ppm) [%]	Fungicidal Activities BPM (C.V.) (Erysiphae graminis; 2 ppm) [%]	Fungicidal Activities WLR (C.V.) (Puccinia recondita; 2 ppm) [%]	Fungicidal Activities RCV (C.V.) ([1]; 2 ppm) [%]	Fungicidal Activities RSB (C.V.) (Rhizoctonia solani AG-1; 50 ppm) [%]	Fungicidal Activities BPM (C.V.) (Erysiphae graminis; 50 ppm) [%]	Fungicidal Activities CGM (C.V.) (Botrytis cinerae; 50 ppm) [%]	Fungicidal Activities WLR (C.V.) (Puccinia recondita; 50 ppm) [%]	Fungicidal Activities TLB (C.V.) (Phytophthora infestans; 50 ppm) [%]	Fungicidal Activities RCV (C.V.) ([1]; 50 ppm) [%]	other results
CON=C(C(=O)OC)c1ccccc1CON=C(C)c1cccc(OC(F)=Cc2cccc(OC)c2)c1 [Compound 71]	100	100	100	25	98	100	50	100											RSB (Fungicidal Activities, C.V.) (Rhizoctonia solani AG-1; concentration 2 ppm): 35%; TLB (Fungicidal Activities, C.V.) (Phytophthora infestans; concentration 2 ppm): 25%; RCV (Fungicidal Activities, C.V.) ([1]; concentration 2 ppm): 100%
CCOc1ccc(C=C(F)Oc2cccc(C(C)=NOCc3ccccc3C(=NOC)C(=O)OC)c2)cc1 [Compound 73]	100	100	100	0	98	100	60	95											RSB (Fungicidal Activities, C.V.) (Rhizoctonia solani AG-1; concentration 2 ppm): 25%; TLB (Fungicidal Activities, C.V.) (Phytophthora infestans; concentration 2 ppm): 0%; RCV (Fungicidal Activities, C.V.) ([1]; concentration 2 ppm): 100%
OC(c1ccc(Cl)cc1)(c1cncnc1)c1ccccc1Cl (centres unmarked) [FENARIMOL, reference compound]									40	100	80	0							Fungicidal Activities RSB (C.V.) (Rhizoctonia solani AG-1; 0.08 ppm): 14%; Fungicidal Activities RSB (C.V.) (Rhizoctonia solani AG-1; 0.40 ppm): 30%; Fungicidal Activities RSB (C.V.) (Rhizoctonia solani AG-1; 10 ppm): 85%; Fungicidal Activities BPM (C.V.) (Erysiphae graminis; 0.08 ppm): 50%; Fungicidal Activities BPM (C.V.) (Erysiphae graminis; 0.40 ppm): 95%; Fungicidal Activities BPM (C.V.) (Erysiphae graminis; 10 ppm): 100%; Fungicidal Activities CGM (C.V.) (Botrytis cinerae; 0.08 ppm): 0%; Fungicidal Activities CGM (C.V.) (Botrytis cinerae; 0.40 ppm): 7%; Fungicidal Activities CGM (C.V.) (Botrytis cinerae; 2 ppm): 7%; Fungicidal Activities CGM (C.V.) (Botrytis cinerae; 10 ppm): 7%; Fungicidal Activities WLR (C.V.) (Puccinia recondita; 0.08 ppm): 15%; Fungicidal Activities WLR (C.V.) (Puccinia recondita; 0.40 ppm): 15%; Fungicidal Activities WLR (C.V.) (Puccinia recondita; 10 ppm): 100%; Fungicidal Activities TLB (C.V.) (Phytophthora infestans; 0.08 ppm): 0%; Fungicidal Activities TLB (C.V.) (Phytophthora infestans; 0.40 ppm): 60%; Fungicidal Activities TLB (C.V.) (Phytophthora infestans; 2 ppm): 75%; Fungicidal Activities TLB (C.V.) (Phytophthora infestans; 10 ppm): 80%; Fungicidal Activities RCV (C.V.) ([1]; 0.08 ppm): 0%; Fungicidal Activities RCV (C.V.) ([1]; 0.40 ppm): 0%; Fungicidal Activities RCV (C.V.) ([1]; 10 ppm): 0%
CCc1ccc(C(=C(F)Oc2cccc(C(C)=NOCc3ccccc3C(=NOC)C(=O)NC)c2)C(F)(F)F)cc1 [Compound 195]									25	99	98	100	80	100	82	100	50	96	Fungicidal Activities TLB (C.V.) (Phytophthora infestans; 2 ppm): 25%
COC=C(C(=O)OC)c1ccccc1CON=Cc1cccc(OC(F)=C(c2ccc(C)cc2)C(F)(F)F)c1 [Compound 105]	20	98	100	0	86	100	0	0											BPM (Fungicidal Activities, C.V.) (Erysiphae graminis; concentration 10 ppm): 99%; WLR (Fungicidal Activities, C.V.) (Puccinia recondita; concentration 10 ppm): 98%
CON=C(C(=O)OC)c1ccccc1CON=C(C)c1cccc(OC(F)=C(c2ccc(C)cc2)C(F)(F)F)c1 [Compound 175]									10	83	86	76	65	100	12	100	0	96	
CNC(=O)C(=NOC)c1ccccc1CON=C(C)c1cccc(OC(F)=C(c2ccc(OC)cc2)C(F)(F)F)c1 [Compound 198]										41	53	95	58	100	16	100	0	100	
